From patent publication US20230000813A1, “COMPOUND FOR THE TREATMENT OF BOVINE OR SWINE RESPIRATORY DISEASE” (Intervet Inc., priority 2016, published 2023)
Values after ≈ are worked out from the molar mass of the structure shown.

System: Pasteurella multocida PM 12080 (IV102277-0093, BRD field isolate)
Test: MIC, broth-microdilution (CLSI VET01-A4)
Format: cell-based
Conditions: Pasteurella multocida PM 12080
Procedure: (§1) The Minimum inhibitory concentrations (MIC) of compounds according to the invention for a number of veterinary bacterial pathogens were determined by the broth-microdilution method according to CLSI document VET01-A4.
(§2) Microdilution trays containing a doubling dilution series of the test compound were used for the tests. The MIC results were interpreted according to the CLSI documents VET01-S3. The lowest concentration of compound at which no visible growth (i.e. no turbidity) detected by the unaided eye was recorded as the MIC.
(§3) The Minimum inhibitory concentrations (MIC) of compounds according to the invention were determined by the broth-microdilution method according to CLSI document VET01-A4.
(§4) Microdilution trays containing a doubling dilution series of the test compound were used for the tests.
(§5) The MIC results were interpreted according to the CLSI documents VET01-S3. The lowest concentration of compound at which no visible growth (i.e. no turbidity) detected by the unaided eye was recorded as the MIC.

SMILES | MIC PM 12080
CC(O)C(NC(=O)c1ccc(C#CC#CC=CCNCc2ccc(Cl)cc2)cc1)C(=O)NO (stereo not shown) [Compound 453] | <=0.1 μM
CSCCNCc1ccc(C#Cc2ccc(C(=O)N[C@H](C(=O)NO)[C@@H](C)O)cc2)cc1 [Compound 472] | <=0.1 μM
C#CCNCc1ccc(C#Cc2ccc(C(=O)N[C@H](C(=O)NO)[C@@H](C)O)cc2)s1 [Compound 479] | <=0.1 μM
CC(O)C(NC(=O)c1ccc(C#CC#CC=CCNCc2cccs2)cc1)C(=O)NO (stereo not shown) [Compound 464] | <=0.1 μM
C=C(C)CNCc1ccc(C#Cc2ccc(C(=O)N[C@H](C(=O)NO)[C@@H](C)O)cc2)s1 [Compound 476] | <=0.1 μM

System: Pasteurella multocida PM 6391 (ATCC 43137, reference strain)
Test: MIC, broth-microdilution (CLSI VET01-A4)
Format: cell-based
Conditions: Pasteurella multocida PM 6391
Procedure: as §1, §2, §3, §4, §5

SMILES | MIC PM 6391
CC(O)C(NC(=O)c1ccc(C#CC#CC=CCNCc2ccc(Cl)cc2)cc1)C(=O)NO (stereo not shown) [Compound 453] | <=0.1 μM
CSCCNCc1ccc(C#Cc2ccc(C(=O)N[C@H](C(=O)NO)[C@@H](C)O)cc2)cc1 [Compound 472] | <=0.1 μM
C#CCNCc1ccc(C#Cc2ccc(C(=O)N[C@H](C(=O)NO)[C@@H](C)O)cc2)s1 [Compound 479] | <=0.1 μM
CC(O)C(NC(=O)c1ccc(C#CC#CC=CCNCc2cccs2)cc1)C(=O)NO (stereo not shown) [Compound 464] | <=0.1 μM
C=C(C)CNCc1ccc(C#Cc2ccc(C(=O)N[C@H](C(=O)NO)[C@@H](C)O)cc2)s1 [Compound 476] | <=0.1 μM

System: Mannheimia haemolytica MH 6374 (ATCC 33396, reference strain)
Test: MIC, broth-microdilution (CLSI VET01-A4)
Format: cell-based
Conditions: Mannheimia haemolytica MH 6374
Procedure: as §1, §2, §3, §4, §5

SMILES | MIC MH 6374
C=C(C)CNCc1ccc(C#Cc2ccc(C(=O)N[C@H](C(=O)NO)[C@@H](C)O)cc2)s1 [Compound 476] | <=0.1 μM

Same assay, conditions: Mannheimia haemolytica MH 6374; read-out: MIC MH 6374

SMILES | MIC [µM]
CC(O)C(NC(=O)c1ccc(C#CC#CC=CCNCc2ccc(Cl)cc2)cc1)C(=O)NO (stereo not shown) [Compound 453] | 0.4 (≈ 0.186 µg/mL)
CSCCNCc1ccc(C#Cc2ccc(C(=O)N[C@H](C(=O)NO)[C@@H](C)O)cc2)cc1 [Compound 472] | 0.8 (≈ 0.353 µg/mL)
C#CCNCc1ccc(C#Cc2ccc(C(=O)N[C@H](C(=O)NO)[C@@H](C)O)cc2)s1 [Compound 479] | 0.2 (≈ 0.0823 µg/mL)
CC(O)C(NC(=O)c1ccc(C#CC#CC=CCNCc2cccs2)cc1)C(=O)NO (stereo not shown) [Compound 464] | 0.2 (≈ 0.0875 µg/mL)

System: Mannheimia haemolytica MH 6357 (M7/2, reference strain, cattle infection strain)
Test: MIC, broth-microdilution (CLSI VET01-A4)
Format: cell-based
Conditions: Mannheimia haemolytica MH 6357
Procedure: as §1, §2, §3, §4, §5

SMILES | MIC MH 6357
C#CCNCc1ccc(C#Cc2ccc(C(=O)N[C@H](C(=O)NO)[C@@H](C)O)cc2)s1 [Compound 479] | <=0.1 μM

Same assay, conditions: Mannheimia haemolytica MH 6357; read-out: MIC MH 6357

SMILES | MIC [µM]
CC(O)C(NC(=O)c1ccc(C#CC#CC=CCNCc2ccc(Cl)cc2)cc1)C(=O)NO (stereo not shown) [Compound 453] | 1.6 (≈ 0.745 µg/mL)
CSCCNCc1ccc(C#Cc2ccc(C(=O)N[C@H](C(=O)NO)[C@@H](C)O)cc2)cc1 [Compound 472] | 0.4 (≈ 0.177 µg/mL)
CC(O)C(NC(=O)c1ccc(C#CC#CC=CCNCc2cccs2)cc1)C(=O)NO (stereo not shown) [Compound 464] | 0.4 (≈ 0.175 µg/mL)
C=C(C)CNCc1ccc(C#Cc2ccc(C(=O)N[C@H](C(=O)NO)[C@@H](C)O)cc2)s1 [Compound 476] | 0.2 (≈ 0.0855 µg/mL)

System: Pasteurella multocida PM 6267 (P 2225 (L386), reference strain, mouse infection strain)
Test: MIC, broth-microdilution (CLSI VET01-A4)
Format: cell-based
Conditions: Pasteurella multocida PM 6267
Procedure: as §1, §2, §3, §4, §5

SMILES | MIC PM 6267
CC(O)C(NC(=O)c1ccc(C#CC#CC=CCNCc2ccc(Cl)cc2)cc1)C(=O)NO (stereo not shown) [Compound 453] | <=0.1 μM
CSCCNCc1ccc(C#Cc2ccc(C(=O)N[C@H](C(=O)NO)[C@@H](C)O)cc2)cc1 [Compound 472] | <=0.1 μM
C#CCNCc1ccc(C#Cc2ccc(C(=O)N[C@H](C(=O)NO)[C@@H](C)O)cc2)s1 [Compound 479] | <=0.1 μM
CC(O)C(NC(=O)c1ccc(C#CC#CC=CCNCc2cccs2)cc1)C(=O)NO (stereo not shown) [Compound 464] | <=0.1 μM
C=C(C)CNCc1ccc(C#Cc2ccc(C(=O)N[C@H](C(=O)NO)[C@@H](C)O)cc2)s1 [Compound 476] | <=0.1 μM

System: Mannheimia haemolytica MH 10720 (154, BRD field isolate)
Test: MIC, broth-microdilution (CLSI VET01-A4)
Format: cell-based
Conditions: Mannheimia haemolytica MH 10720
Procedure: as §1, §2, §3, §4, §5

SMILES | MIC MH 10720
CC(O)C(NC(=O)c1ccc(C#CC#CC=CCNCc2ccc(Cl)cc2)cc1)C(=O)NO (stereo not shown) [Compound 453] | <=0.1 μM
CSCCNCc1ccc(C#Cc2ccc(C(=O)N[C@H](C(=O)NO)[C@@H](C)O)cc2)cc1 [Compound 472] | <=0.1 μM
C#CCNCc1ccc(C#Cc2ccc(C(=O)N[C@H](C(=O)NO)[C@@H](C)O)cc2)s1 [Compound 479] | <=0.1 μM
CC(O)C(NC(=O)c1ccc(C#CC#CC=CCNCc2cccs2)cc1)C(=O)NO (stereo not shown) [Compound 464] | <=0.1 μM
C=C(C)CNCc1ccc(C#Cc2ccc(C(=O)N[C@H](C(=O)NO)[C@@H](C)O)cc2)s1 [Compound 476] | <=0.1 μM

System: Mannheimia haemolytica MH 12587 (1071, BRD field isolate, macrolide-resistance: erm+, E+)
Test: MIC, broth-microdilution (CLSI VET01-A4)
Format: cell-based
Conditions: Mannheimia haemolytica MH 12587, macrolide-resistant
Procedure: as §1, §2, §3, §4, §5

SMILES | MIC MH 12587 [µM]
CC(O)C(NC(=O)c1ccc(C#CC#CC=CCNCc2ccc(Cl)cc2)cc1)C(=O)NO (stereo not shown) [Compound 453] | 1.6 (≈ 0.745 µg/mL)
CSCCNCc1ccc(C#Cc2ccc(C(=O)N[C@H](C(=O)NO)[C@@H](C)O)cc2)cc1 [Compound 472] | 1.6 (≈ 0.706 µg/mL)
C#CCNCc1ccc(C#Cc2ccc(C(=O)N[C@H](C(=O)NO)[C@@H](C)O)cc2)s1 [Compound 479] | 0.8 (≈ 0.329 µg/mL)
CC(O)C(NC(=O)c1ccc(C#CC#CC=CCNCc2cccs2)cc1)C(=O)NO (stereo not shown) [Compound 464] | 0.8 (≈ 0.35 µg/mL)
C=C(C)CNCc1ccc(C#Cc2ccc(C(=O)N[C@H](C(=O)NO)[C@@H](C)O)cc2)s1 [Compound 476] | 0.8 (≈ 0.342 µg/mL)

System: Mannheimia haemolytica MH 13093 (XB0472-6014.1, BRD field isolate)
Test: MIC, broth-microdilution (CLSI VET01-A4)
Format: cell-based
Conditions: not given
Procedure: as §1, §2

SMILES | MIC [µM]
CC(O)C(NC(=O)c1ccc(C#CC#CC=CCNCc2ccc(Cl)cc2)cc1)C(=O)NO (stereo not shown) [Compound 453] | 1.6 (≈ 0.745 µg/mL)
CSCCNCc1ccc(C#Cc2ccc(C(=O)N[C@H](C(=O)NO)[C@@H](C)O)cc2)cc1 [Compound 472] | 1.6 (≈ 0.706 µg/mL)
C#CCNCc1ccc(C#Cc2ccc(C(=O)N[C@H](C(=O)NO)[C@@H](C)O)cc2)s1 [Compound 479] | 0.8 (≈ 0.329 µg/mL)
CC(O)C(NC(=O)c1ccc(C#CC#CC=CCNCc2cccs2)cc1)C(=O)NO (stereo not shown) [Compound 464] | 0.8 (≈ 0.35 µg/mL)
C=C(C)CNCc1ccc(C#Cc2ccc(C(=O)N[C@H](C(=O)NO)[C@@H](C)O)cc2)s1 [Compound 476] | 0.4 (≈ 0.171 µg/mL)
